The source made the active and inactive calls. No cut-off for these calls is given here. A value given as a limit tells only on which side of the number the result lay.

The nature of data set [1]: Antioxidant activity assessed as superoxide anion scavenging activity at 50 uM after 5 mins by spectrophotometry. In kind it is functional.
The subject of data set [2] is Liver. The experiment in a line: Inhibition of lipid peroxidation in Sprague-Dawley rat liver homogenate assessed as malondialdehyde formation after 1 hr by TBARS assay. In kind it is functional, tissue-based.
A short description of data set [3]: Iron chelating activity assessed as inhibition of ferrozine-Fe2+ complex formation at 150 uM after 10 mins by spectrophotometry. It is filed as functional.
A short description of data set [4]: Iron chelating activity assessed as inhibition of ferrozine-Fe2+ complex formation after 10 mins by spectrophotometry. It is filed as functional.
The subject of data set [5] is PC-12. The experiment in a line: Neuroprotective activity against H2O2-induced injury in rat PC12 cells assessed as increase in cell viability at 50 uM treated 2 hrs before H2O2 challenge measured after 4 hrs by MTT assay. It is filed as functional.
The test system of data set [6] is PC-12. The experiment in a line: Neuroprotective activity against H2O2-induced injury in rat PC12 cells treated 2 hrs before H2O2 challenge measured after 4 hrs by MTT assay. It is filed as functional, cell-based.
Data set [7] deals with Radical scavenging activity. The experiment in a line: Antioxidant activity assessed as DPPH radical scavenging activity at 50 uM after 30 mins by spectrophotometry. In kind it is functional.
For data set [8], the system named is PC-12. The experiment in a line: Neuroprotective activity against H2O2-induced injury in rat PC12 cells at 12.5 to 50 uM treated 2 hrs before H2O2 challenge measured after 4 hrs by MTT assay. In kind it is functional, cell-based.
The target of data set [9] is T1, Xanthine dehydrogenase/oxidase (Rattus norvegicus, UniProt P22985). The experiment in a line: Inhibition of rat liver xanthine oxidase at 75 uM after 2 hrs by spectrophotometry. To be noted: for inhibition (INH): 75 µM.
Data set [10] deals with Radical scavenging activity. The experiment in a line: Antioxidant activity assessed as DPPH radical scavenging activity after 30 mins by spectrophotometry. In kind it is functional.
Data set [11] in a line: Antioxidant activity assessed as superoxide anion scavenging activity after 5 mins by spectrophotometry. In kind it is functional.
The target of data set [12] is T1, Xanthine dehydrogenase/oxidase. The experiment in a line: Inhibition of rat liver xanthine oxidase after 2 hrs by spectrophotometry.
Data set [13] in a line: Ratio of quercetin EC50 to compound EC50 for iron chelating activity.
For data set [14], the system named is Liver. The experiment in a line: Ratio of silybin IC50 to compound IC50 for inhibition of lipid peroxidation in Sprague-Dawley rat liver homogenate. It is filed as functional, tissue-based.
Data set [15] relates to Liver. The experiment in a line: Ratio of 2,3-dehydrosilybin IC50 to compound IC50 for inhibition of lipid peroxidation in Sprague-Dawley rat liver homogenate. It is filed as functional, tissue-based.
Data set [16] concerns Liver. The experiment in a line: Ratio of quercetin IC50 to compound IC50 for inhibition of lipid peroxidation in Sprague-Dawley rat liver homogenate. In kind it is functional, tissue-based.
Data set [17] can be described thus: Ratio of 2,3-dehydrosilybin EC50 to compound EC50 for iron chelating activity. It is filed as functional.

T1 sequence (P22985 whole entry): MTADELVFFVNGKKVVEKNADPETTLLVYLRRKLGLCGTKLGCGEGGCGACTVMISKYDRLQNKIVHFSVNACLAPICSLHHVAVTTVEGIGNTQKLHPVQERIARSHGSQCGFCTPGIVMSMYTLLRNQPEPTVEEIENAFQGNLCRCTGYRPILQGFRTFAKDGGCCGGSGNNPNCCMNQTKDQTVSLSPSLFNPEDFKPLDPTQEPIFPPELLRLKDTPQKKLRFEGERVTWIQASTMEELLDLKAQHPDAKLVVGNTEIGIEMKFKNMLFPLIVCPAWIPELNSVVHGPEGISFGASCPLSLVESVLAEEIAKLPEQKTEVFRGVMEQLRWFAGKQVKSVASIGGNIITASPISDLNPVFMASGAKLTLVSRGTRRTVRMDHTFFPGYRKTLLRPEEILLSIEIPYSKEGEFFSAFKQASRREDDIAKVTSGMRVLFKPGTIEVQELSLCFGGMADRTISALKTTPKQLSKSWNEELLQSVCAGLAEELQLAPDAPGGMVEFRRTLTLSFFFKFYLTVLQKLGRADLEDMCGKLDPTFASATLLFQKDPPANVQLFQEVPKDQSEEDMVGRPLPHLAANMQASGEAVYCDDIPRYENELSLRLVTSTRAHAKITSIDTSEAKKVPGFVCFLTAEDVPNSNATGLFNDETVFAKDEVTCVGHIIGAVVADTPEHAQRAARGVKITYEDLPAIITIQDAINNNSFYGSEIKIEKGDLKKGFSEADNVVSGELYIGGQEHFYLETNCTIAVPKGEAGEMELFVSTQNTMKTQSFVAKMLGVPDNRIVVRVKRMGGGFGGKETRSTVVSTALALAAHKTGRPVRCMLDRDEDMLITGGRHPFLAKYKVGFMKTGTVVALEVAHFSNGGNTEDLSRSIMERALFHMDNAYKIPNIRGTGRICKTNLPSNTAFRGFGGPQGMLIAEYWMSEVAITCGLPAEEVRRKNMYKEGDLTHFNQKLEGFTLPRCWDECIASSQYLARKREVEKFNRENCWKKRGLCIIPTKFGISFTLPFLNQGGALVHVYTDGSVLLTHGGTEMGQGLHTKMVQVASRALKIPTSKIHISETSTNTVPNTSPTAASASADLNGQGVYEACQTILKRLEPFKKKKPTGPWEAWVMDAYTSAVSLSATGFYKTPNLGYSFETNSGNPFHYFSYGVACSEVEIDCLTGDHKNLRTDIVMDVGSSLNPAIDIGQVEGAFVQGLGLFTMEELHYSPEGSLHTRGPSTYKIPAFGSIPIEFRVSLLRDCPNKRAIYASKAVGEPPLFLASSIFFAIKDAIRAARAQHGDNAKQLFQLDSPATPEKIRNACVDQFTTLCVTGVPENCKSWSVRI

Turning to `COc1cc(C2Oc3cc(-c4oc5cc(OCC=C(C)C)cc(O)c5c(=O)c4O)ccc3OC2CO)ccc1O` (racemic), the outcome in data set [1] was Active. Besides, the IC50 in data set [2] was 23.3 µM. Moreover, the inhibition in [3] was 51%. In addition, the EC50 in data set [4] is 137 µM; in [6] it was 32 µM. Further, the Activity in data set [5] is on record as 40%.

`C=CCCOc1cc(O)c2c(=O)c(O)c(-c3ccc4c(c3)OC(c3ccc(OCCC=C)c(OC)c3)C(CO)O4)oc2c1` (racemic): in data set [1], the outcome was inactive. Moreover, in data set [2], the IC50 is 36.2 µM. Further, the figures for the EC50 in data set [4] and in [6] were 145 µM and 37.7 µM, respectively. Further, the Activity in [5] is recorded as 40%.

For `O=C([O-])CN(CCN(CC(=O)[O-])CC(=O)O)CC(=O)O.[Na+].[Na+]` [EDETATE DISODIUM ANHYDROUS], in data set [3], the inhibition was determined as 91.5%. In addition, the EC50 in data set [4] is 16.4 µM.

As to `O=C1O[C@H]([C@@H](O)CO)C(O)=C1O`, in [7], the inhibition came to 12.6%.

For the molecule `C=CCCOc1cc(O)c2c(=O)c(OCCC=C)c(-c3ccc4c(c3)OC(c3ccc(OCCC=C)c(OC)c3)C(CO)O4)oc2c1` (racemic), in data set [1], the outcome was inactive. The IC50 in data set [2] was found to be 67.5 µM. In addition, the Activity in data set [5] is 40%. The molecule further gave an EC50 in data set [6] of 79.4 µM.

On to `CCN(CC)C(=O)COc1cc(O)c2c(=O)c(O)c(-c3ccc4c(c3)OC(c3ccc(OCC(=O)N(CC)CC)c(OC)c3)C(CO)O4)oc2c1` (racemic), for which, in data set [1], the outcome was inactive. Moreover, in data set [2], the IC50 is 5.8 µM. Moreover, in data set [3], the inhibition worked out at 63%. For the same molecule, the EC50 in data set [4] was 59.9 µM. Moreover, in data set [8], the result was Active. Moreover, the “inhibition (INH)” value in data set [9] is listed as “Active”.

`C=CCOc1cc(O)c2c(=O)c(O)c(-c3ccc4c(c3)OC(c3ccc(OCC=C)c(OC)c3)C(CO)O4)oc2c1` (racemic): the result in data set [1] was inactive. For the same molecule, in data set [2], the IC50 turned out to be 22.6 µM. In addition, the inhibition in [3] amounted to 72.5%. Also, the EC50 in [4] came out at 129 µM; in data set [6], 20.5 µM. The Activity in [5] is on record as 40%.

Take `O=c1c(O)c(-c2ccc(O)c(O)c2)oc2cc(O)cc(O)c12` [QUERCETIN]: the EC50 in data set [10] worked out at 3.4 µM; in [11], 38.6 µM; in data set [4], 188 µM; in data set [6], 58.4 µM. In data set [2], the IC50 is 4.6 µM. Besides, the inhibition in data set [3] was 43.5%.

For `COc1ccc(NC(=O)COc2cc(O)c3c(=O)c(O)c(-c4ccc5c(c4)OC(c4ccc(OCC(=O)Nc6ccc(OC)cc6)c(OC)c4)C(CO)O5)oc3c2)cc1` (racemic), the outcome in data set [1] was inactive. In addition, the IC50 in [2] turned out to be 37 µM. In data set [8], the result was Active. In data set [9], the “inhibition (INH)” value is recorded as “Active”.

In data set [12], `Oc1ncnc2[nH]ncc12` [ALLOPURINOL] had an IC50 of 21.2 µM.

`C=CCOc1cc(O)c2c(=O)c(OCC=C)c(-c3ccc4c(c3)OC(c3ccc(OCC=C)c(OC)c3)C(CO)O4)oc2c1` (racemic): the outcome in data set [1] was inactive. Also, in data set [2], the IC50 amounted to 54.8 µM.

`CCOC(=O)COc1cc(O)c2c(=O)c(O)c(-c3ccc4c(c3)OC(c3ccc(OCC(=O)OCC)c(OC)c3)C(CO)O4)oc2c1` (racemic): in data set [1], the result was inactive. In addition, the IC50 in [2] worked out at 36.4 µM; in [12], 70.8 µM. Besides, in data set [3], the inhibition was 53.5%. In addition, the EC50 in data set [4] was 116 µM. Besides, the inhibition at 75 µM in [9] was over 50%.

In the case of `CCN(CC)C(=O)COc1cc(O)c2c(=O)c(O)c(-c3ccc4c(c3)OC(c3ccc(O)c(OC)c3)C(CO)O4)oc2c1` (racemic), the inhibition amounted to 46.4% in data set [7] and 52.5% in [3]. Besides, the outcome in data set [1] was Active. For the same molecule, the IC50 in data set [2] was 0.7 µM. The EC50 in [4] was determined as 113 µM. In addition, the “inhibition (INH)” value in [9] was “Active”.

Regarding `COc1cc(C2Oc3cc(-c4oc5cc(O)cc(O)c5c(=O)c4O)ccc3OC2CO)ccc1O` (stereo unspecified) [DEHYDROSILYLBIN], the values for the inhibition in data set [7] and in data set [3] were 42.2% and 58%, respectively. Also, the IC50 came to 10.7 µM in data set [2] and 80.3 µM in data set [12]. In addition, the figures for the EC50 in [4] and in data set [6] were 118 µM and 30.2 µM, respectively. For the same molecule, the Activity in [5] stood at 40%.

With `COc1cc(C2Oc3cc([C@H]4Oc5cc(O)cc(O)c5C(=O)[C@@H]4O)ccc3OC2CO)ccc1O` (stereo partly specified) [SILIBININ], the IC50 in data set [2] came to 84.8 µM; in [12], 80.3 µM. The “inhibition (INH)” value in [9] is recorded as “Not Active”.

Turning to `COc1cc(C2Oc3cc(-c4oc5cc(OCC(=O)N6CCCC6)cc(O)c5c(=O)c4O)ccc3OC2CO)ccc1OCC(=O)N1CCCC1` (racemic), the Ratio EC50 came to 7 in data set [13] and 4 in [17]. Also, the inhibition came to 44.2% in data set [7] and 87% in [3]. In [1], the result was inactive. Besides, the IC50 in data set [2] was found to be 0.9 µM. Moreover, the Ratio IC50 in data set [14] stood at 93; in data set [15], 11; in data set [16], 5. Further, the EC50 in data set [4] is 23.2 µM. The result in data set [8] was Active. Moreover, in [9], the “inhibition (INH)” value is recorded as “Active”.

On to `COc1cc(C2Oc3cc(-c4oc5cc(OCC(=O)Nc6ccc(Cl)cc6)cc(O)c5c(=O)c4O)ccc3OC2CO)ccc1OCC(=O)Nc1ccc(Cl)cc1` (racemic), for which the outcome in [1] was inactive. The IC50 in data set [2] worked out at 153 µM. For the same molecule, the outcome in data set [8] was Active. Also, in data set [9], the “inhibition (INH)” value is “Active”.

Turning to `COc1cc(C2Oc3cc(-c4oc5cc(OCC(=O)Nc6ccc(C)cc6)cc(O)c5c(=O)c4O)ccc3OC2CO)ccc1OCC(=O)Nc1ccc(C)cc1` (racemic), in [1], the outcome was inactive. Moreover, the IC50 in [2] turned out to be 74.1 µM. For the same molecule, the result in data set [8] was Active. Further, in [9], the “inhibition (INH)” value is on record as “Active”.

Consider `COc1cc(C2Oc3cc(-c4oc5cc(OCC=C(C)C)cc(O)c5c(=O)c4O)ccc3OC2CO)ccc1OCC=C(C)C` (racemic), for which the outcome in data set [1] was inactive. Further, the IC50 in [2] came out at 28.1 µM. Further, the EC50 was 138 µM in data set [4] and 47.4 µM in [6]. In data set [5], the Activity came out at 40%. Moreover, 75 µM produced 18.9% inhibition in [9].

On to `COc1cc(C2Oc3cc(-c4oc5cc(O)cc(O)c5c(=O)c4O)ccc3OC2COC(=O)c2cccc(Cl)c2)ccc1O` (racemic), for which, in [1], the result was inactive. Besides, in [2], the IC50 is 16.9 µM. Besides, the Activity in data set [5] is 40%. Moreover, a half-maximal response in [6] (EC50) required 46.5 µM.

`COc1cc(C2Oc3cc(-c4oc5cc(OCC(=O)Nc6ccc(Cl)cc6Cl)cc(O)c5c(=O)c4O)ccc3OC2CO)ccc1OCC(=O)Nc1ccc(Cl)cc1Cl` (racemic): the result in data set [1] was inactive. The IC50 in [2] was determined as 20.7 µM. For the same molecule, the result in data set [8] was Active. Moreover, the “inhibition (INH)” value in [9] was “Active”.

Consider `COc1ccc(C(=O)OCC2Oc3ccc(-c4oc5cc(O)cc(O)c5c(=O)c4O)cc3OC2c2ccc(O)c(OC)c2)cc1` (racemic), for which, in [1], the result was inactive. Also, in [2], the IC50 was 104 µM.
